Columns and labels:
[1] = biological target: T1, STING in THP1-Dual KI-hSTING-R232 cells (Homo sapiens, UniProt Q86WV6, H232R); test: Human THP1 reporter cell assay (IRF luciferase reporter); format: cell-based; conditions: 24 hours incubation
T1 construct: host or cells: THP1-Dual KI-hSTING-R232 cells (human monocytic THP-1 reporter line)
Experimental: Test Example 2. Human THP1 Reporter Cell Assay
• 1. Human THP1-Dual KI-hSTING-R232 Cells (InvivoGen, Cat. #thpd-r232) • 2. QUANTI-LUC (InvivoGen, Cat. #rep-qlc2) • 3. Media for cell culture and compound dilution: RPMI with high glucose and glutamine (Genesee, Cat. #25-506), 10% fetal bovine serum (Life Technologies, Cat. #10082147), 25 mM HEPES (Genesee, Cat. #25-534), 100 μg/ml Normocin (InvivoGen, Cat. #ant-nr-2), 10 μg/ml blasticidin (InvivoGen, Cat. #ant-bl-05), 100 μg/ml Zeocin (InvivoGen, Cat. #ant-zn-5p) and Penicillin-Streptomycin (100×) (Life Technologies, Cat. #15140122) • 4. Infinite M1000 plate reader (TECAN) Experimental Procedure
Activation of STING in THP1-Dual KI-hSTING-R232 cells was determined by measuring the luminescence signal resulting from the expression of the IRF luciferase reporter gene. All reagent preparation and assay procedures were conducted according to the protocols provided by InvivoGen. In brief, test compounds and cells (1×10^5 cells per well) were dispensed into 96-well plates with a final volume per well of 150 μl. Plates were incubated in a humidified, 5% CO2 incubator at 37° C. for 24 hours. The expression level of the reporter gene was measured by transferring 20 μl of the supernatant to a non-transparent 96-well plate to which 50 μl of QUANTI-LUC was dispensed into each well. The resulting luminescence signal was immediately read using a TECAN plate reader. The background luminescence signal from media was subtracted. The fold induction effect of the luminescence signal at each compound concentration was determined relative to controls that lack compound treatment. The plot of fold induction effect versus the log of compound concentration was fit in GraphPad Prism with a 4-parameter concentration response equation to calculate EC50 and Emax.
Activation of STING in THP1 of the compounds in the present invention was determined by the above assay, and EC50 values are shown in the following table 2.

[2] = tested on: Human PBMC cells; test: IFNβ secretion in human PBMC; format: cell-based; conditions: IFNβ in supernatant by ELISA, 5 hours incubation
Experimental: Test Example 3. IFNβ Secretion in Human PBMC
• 1. Human PBMC cells (STEMCELL Technologies) • 2. Lymphocyte Medium (Zenbio) • 3. Culture and compound dilution media: RPMI with high glucose and glutamine (Genesee, Cat. #25-506), 10% fetal bovine serum (Life Technologies, Cat. #10082147), 100 μg/ml Normocin (InvivoGen, Cat. #ant-nr-2) and Penicillin-Streptomycin (100×) (Life Technologies, Cat. #15140122) • 4. Human IFNβ Quantikine ELISA kit (R&D systems) • 5. Infinite M1000 plate reader (TECAN) Experimental Procedure
Cryopreserved peripheral blood human mononuclear cells (PBMCs) were rapidly thawed and resuspended in Lymphocyte Media and centrifuged at 500×g for 5 minutes. The supernatant was removed and the cell pellets were gently resuspended in cell culture and compound dilution media. Human PBMC cells were plated in a 96-well format at a concentration of 1.5×10^5 cells per well. The test compounds, at varying concentrations, or vehicle control (<0.3% DMSO) were mixed with the cells giving a final volume of 150 μl per well. The plates were incubated for 5 hours in a humidified, 5% CO2 incubator at 37° C. After incubation, the human IFNβ in the supernatant and the IFNβ standard controls were measured using human IFNβ Quantikine ELISA kit according to the manufacturer's protocol. The absorbance at 450 nm was measured with Infinite M1000 plate reader and corrected by background reading at 540 nm of each well. The amount of […] based on the standard curves. The plot of IFNβ concentration versus the log of compound concentration was fit in GraphPad Prism with a 4-parameter concentration response equation to calculate EC50 and Emax.

[3] = biological target: T2, hSTING c-terminal domain (purified hSTING aa154-342) (Homo sapiens, UniProt Q86WV6); test: Thermal shift assay for measuring the relative binding affinity to hSTING c-terminal domain; conditions: Tm of sample minus mean Tm of negative control (buffer, 2% DMSO), SYPRO Orange
T2 construct: Purified hSTING (aa154-342)
T2 sequence (Q86WV6 154-342): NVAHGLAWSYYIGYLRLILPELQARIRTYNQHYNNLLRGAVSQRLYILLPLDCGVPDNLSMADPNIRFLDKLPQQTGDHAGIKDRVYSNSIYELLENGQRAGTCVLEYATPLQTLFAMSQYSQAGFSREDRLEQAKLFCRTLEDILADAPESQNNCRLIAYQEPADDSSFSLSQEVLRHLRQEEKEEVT
Experimental: Test Example 1. Thermal Shift Assay for Measuring the Relative Binding Affinity to hSTING c-Terminal Domain
From each of the 10 mM stock solutions of compounds in DMSO, dilutions are made to create samples with three concentrations 10 mM, 5 mM and 2.5 mM. From these dilutions a final 50 fold dilution is made into assay buffer, giving concentrations of 200 μM, 100 μM, and 50 μM. From each of the buffer dilutions, 5 μL is added to the 384 well assay plate. A positive control is setup with cGAMP using the same dilution scheme as the ligands. A baseline thermal shift for the negative control is determined using buffer and 2% DMSO.
An aliquot of protein is thawed on ice and SYPRO orange reagent is brought to room temperature. The 5000× SYPRO orange stock is diluted in assay buffer to a concentration of 10×. Protein is diluted to a concentration of 10 μM in the prepared buffer/dye solution. Five micro-liters of protein/buffer/dye solution is added to each of the sample and control wells, and the plate is sealed with the provided films. The plate is centrifuged for 5 min at 20° C. at 1000 rpm.
On the Light Cycler instrument, measurements are made over a temperature gradient from 20° C. to 99° C. at 0.07° C./s and data acquisitions collected at a rate of 8/° C. is used to measure the change in fluorescence as a function of temperature. Data analysis is performed using the Roche Light Cycler Software to determine the melting temperature (Tm ° C.) of each sample. A mean Tm ° C. for the negative control is calculated and subtracted from each of the samples to generate the ΔTm ° C. values for each of the ligands.
The relative binding affinity to hSTING c-terminal domain of the compounds of the present invention was determined by the above assay, and ΔTm ° C. values are shown in the following table 1.

T1 sequence (Q86WV6 whole entry H232R): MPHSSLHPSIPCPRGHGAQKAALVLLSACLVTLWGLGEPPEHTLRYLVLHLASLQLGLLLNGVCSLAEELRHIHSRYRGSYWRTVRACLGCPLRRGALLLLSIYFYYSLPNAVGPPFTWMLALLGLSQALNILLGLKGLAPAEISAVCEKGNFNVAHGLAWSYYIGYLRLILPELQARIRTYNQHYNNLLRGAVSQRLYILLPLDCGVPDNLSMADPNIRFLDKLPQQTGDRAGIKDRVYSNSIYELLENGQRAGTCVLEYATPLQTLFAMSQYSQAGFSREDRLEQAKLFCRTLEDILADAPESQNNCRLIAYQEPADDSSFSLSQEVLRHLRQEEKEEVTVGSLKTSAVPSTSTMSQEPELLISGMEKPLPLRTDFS

SMILES | EC50 [1] | ΔTm at 100 µM [3] | EC50 [2]
C=CC[C@H]1COc2cc(C(N)=O)cc3nc(NC(=O)c4cc(C)nn4CC)n1c23 [Example 1, (S)-3-allyl-2-(1-ethyl-3-methyl-1H-pyrazole-5-carboxamido)-3,4-dihydro-5-oxa-1,2a-diazaacenaphthylene-7-carboxamide] | 1.6 µM | 5.7 °C | 1.1 µM
C/C=C\C[C@H]1COc2cc(C(N)=O)cc3nc(NC(=O)c4cc(C)nn4CC)n1c23 [Example 5-2, (S,Z)-3-(but-2-en-1-yl)-2-(1-ethyl-3-methyl-1H-pyrazole-5-carboxamido)-3,4-dihydro-5-oxa-1,2a-diazaacenaphthylene-7-carboxamide] | 1.3 µM | – | 1.9 µM
C/C=C/C[C@H]1COc2cc(C(N)=O)cc3nc(NC(=O)c4cc(C)nn4CC)n1c23 [Example 5-3, (S,E)-3-(but-2-en-1-yl)-2-(1-ethyl-3-methyl-1H-pyrazole-5-carboxamido)-3,4-dihydro-5-oxa-1,2a-diazaacenaphthylene-7-carboxamide] | 1.3 µM | – | 1.5 µM
C=CC[C@H]1COc2cc(C(N)=O)cc3nc(NC(=O)c4cc(C)nn4CCC)n1c23 [Example 11, (S)-3-allyl-2-(3-methyl-1-propyl-1H-pyrazole-5-carboxamido)-3,4-dihydro-5-oxa-1,2a-diazaacenaphthylene-7-carboxamide] | – | 5.5 °C | 17 µM
CCn1nc(C)cc1C(=O)Nc1nc2cc(C(N)=O)ccc2n1CCC[C@H]1COc2cc(C(N)=O)cc3nc(NC(=O)c4cc(C)nn4CC)n1c23 [Example 18, (S)-3-(3-(5-carbamoyl-2-(1-ethyl-3-methyl-1H-pyrazole-5-carboxamido)-1H-benzo[d]imidazol-1-yl)propyl)-2-(1-ethyl-3-methyl-1H-pyrazole-5-carboxamido)-3,4-dihydro-5-oxa-1,2a-diazaacenaphthylene-7-carboxamide] | 0.16 µM | – | 0.3 µM
CCn1nc(C)cc1C(=O)Nc1nc2cc(C(N)=O)cc(OCCCO)c2n1CCC[C@H]1COc2cc(C(N)=O)cc3nc(NC(=O)c4cc(C)nn4CC)n1c23 [Example 19, (S)-3-(3-(5-carbamoyl-2-(1-ethyl-3-methyl-1H-pyrazole-5-carboxamido)-7-(3-hydroxypropoxy)-1H-benzo[d]imidazol-1-yl)propyl)-2-(1-ethyl-3-methyl-1H-pyrazole-5-carboxamido)-3,4-dihydro-5-oxa-1,2a-diazaacenaphthylene-7-carboxamide] | – | – | 0.7 µM
CCn1nc(C)cc1C(=O)Nc1nc2cc(C(N)=O)cc(OCCCN3CCOCC3)c2n1CCC[C@H]1COc2cc(C(N)=O)cc3nc(NC(=O)c4cc(C)nn4CC)n1c23 [Example 22, (S)-3-(3-(5-carbamoyl-2-(1-ethyl-3-methyl-1H-pyrazole-5-carboxamido)-7-(3-morpholinopropoxy)-1H-benzo[d]imidazol-1-yl)propyl)-2-(1-ethyl-3-methyl-1H-pyrazole-5-carboxamido)-3,4-dihydro-5-oxa-1,2a-diazaacenaphthylene-7-carboxamide] | 0.1 µM | – | 0.34 µM
CCn1nc(C)cc1C(=O)Nc1nc2cc(C(N)=O)cc(OCCCOP(=O)(O)O)c2n1CCC[C@H]1COc2cc(C(N)=O)cc3nc(NC(=O)c4cc(C)nn4CC)n1c23 [Example 23, (S)-3-((5-carbamoyl-1-(3-(7-carbamoyl-2-(1-ethyl-3-methyl-1H-pyrazole-5-carboxamido)-3,4-dihydro-5-oxa-1,2a-diazaacenaphthylen-3-yl)propyl)-2-(1-ethyl-3-methyl-1H-pyrazole-5-carboxamido)-1H-benzo[d]imidazol-7-yl)oxy)propyl dihydrogen phosphate] | 0.7 µM | 11 °C | –

The next lines start with results.

EC50 [1] | ΔTm at 100 µM [3] | SMILES | EC50 [2]
– | 4 °C | CCn1nc(C)cc1C(=O)Nc1nc2cc(C(N)=O)cc(OC)c2n1CC=C[C@H]1COc2cc(C(N)=O)cc3nc(NC(=O)c4cc(C)nn4CC)n1c23 [Example 14, (S)-3-(3-(5-carbamoyl-2-(1-ethyl-3-methyl-1H-pyrazole-5-carboxamido)-7-methoxy-1H-benzo[d]imidazol-1-yl)prop-1-en-1-yl)-2-(1-ethyl-3-methyl-1H-pyrazole-5-carboxamido)-3,4-dihydro-5-oxa-1,2a-diazaacenaphthylene-7-carboxamide] | 1.8 µM
– | 3 °C | CCn1nc(C)cc1C(=O)Nc1nc2cc(C(N)=O)cc(OC)c2n1C/C=C/C[C@H]1COc2cc(C(N)=O)cc3nc(NC(=O)c4cc(C)nn4CC)n1c23 [Example 15, (S,E)-3-(4-(5-carbamoyl-2-(1-ethyl-3-methyl-1H-pyrazole-5-carboxamido)-7-methoxy-1H-benzo[d]imidazol-1-yl)but-2-en-1-yl)-2-(1-ethyl-3-methyl-1H-pyrazole-5-carboxamido)-3,4-dihydro-5-oxa-1,2a-diazaacenaphthylene-7-carboxamide] | 19 µM
0.35 µM | 12 °C | CCn1nc(C)cc1C(=O)Nc1nc2cc(C(N)=O)cc(OCCCN(C)C)c2n1CCC[C@H]1COc2cc(C(N)=O)cc3nc(NC(=O)c4cc(C)nn4CC)n1c23 [Example 24, (S)-3-(3-(5-carbamoyl-7-(3-(dimethylamino)propoxy)-2-(1-ethyl-3-methyl-1H-pyrazole-5-carboxamido)-1H-benzo[d]imidazol-1-yl)propyl)-2-(1-ethyl-3-methyl-1H-pyrazole-5-carboxamido)-3,4-dihydro-5-oxa-1,2a-diazaacenaphthylene-7-carboxamide] | –
0.5 µM | 13 °C | C=CCOc1cc(C(N)=O)cc2nc(NC(=O)c3cc(C)nn3CC)n(CCC[C@H]3COc4cc(C(N)=O)cc5nc(NC(=O)c6cc(C)nn6CC)n3c45)c12 [Example 25, (S)-3-(3-(7-(allyloxy)-5-carbamoyl-2-(1-ethyl-3-methyl-1H-pyrazole-5-carboxamido)-1H-benzo[d]imidazol-1-yl)propyl)-2-(1-ethyl-3-methyl-1H-pyrazole-5-carboxamido)-3,4-dihydro-5-oxa-1,2a-diazaacenaphthylene-7-carboxamide] | –

— patent US11535633B2, “Fused tricyclic heterocycle compounds and therapeutic uses thereof” (Jiangsu Hengrui Medicine Co., Ltd., priority 2018, dated 2022)
